Laboratory results: patent US20170333391A1, “METHOD FOR DELAYING THE ONSET OF PULMONARY FIBROSIS OR TREATING PULMONARY FIBROSIS” (EVERFRONT BIOTECH INC., priority 2016, published 2017)

How the values were obtained:
[1] = system: BMP-7 protein; experiment: BMP-7 protein expression in TGF-β1-induced NHLF, western blotting (2-2); assay type: cell-based, human; conditions: TGF-β1-only control group = 1
Method: Normal Human lung fibroblasts (NHLF) were seeded into 6 cm culture dishes at a density of 2×10^5 cells/dish, comprising a control group and six experimental groups (7 dishes in total). The cells were cultured until the next day, and then the mediums were removed. Each group was respectively treated under the following conditions to conduct follow-up experiments: • (1) Positive control group: cells were cultured in a FGM-2 medium containing 1% serum and TGF-β1 (5 ng/ml) for 36 hours; • (2) Group I: cells were firstly cultured in a FGM-2 medium containing 1% serum and TGF-β1 (5 ng/ml) for 12 hours, and then compound (1) was added into the medium to provide a final concentration of 15 μg/ml; thereafter, the cells were cultured for another 24 hours; • (3) Group II: cells were firstly cultured in a FGM-2 medium containing 1% serum and TGF-β1 (5 ng/ml) for 12 hours, and then compound (1) was added into the medium to provide a final concentration of 25 μg/ml; thereafter, the cells were cultured for another 24 hours; • (4) Group III: cells were firstly cultured in a FGM-2 medium containing 1% serum and TGF-β1 (5 ng/ml) for 12 hours, and then compound (1) was added into the medium to provide a final concentration of 35 μg/ml; thereafter, the cells were cultured for another 24 hours; • (5) Group IV: cells were firstly cultured in a FGM-2 medium containing 1% serum and TGF-β1 (5 ng/ml) for 12 hours, and then the Pirfenidone was added into the medium to provide a final concentration of 100 μg/ml; thereafter, the cells were cultured for another 24 hours; • (6) Group V: cells were firstly cultured in a FGM-2 medium containing 1% serum and TGF-β1 (5 ng/ml) for 12 hours, and then the Pirfenidone was added into the medium to provide a final concentration of 250 μg/ml; thereafter, the cells were cultured for another 24 hours; and • (7) Group VI: cells were firstly cultured in a FGM-2 medium containing 1% serum and TGF-β1 (5 ng/ml) for 12 hours, and then the Pirfenidone was added into the medium to provide a final concentration of 500 μg/ml; thereafter, the cells were cultured for another 24 hours.
(§1) Thereafter, the proteins in the cells of each group were extracted, and the expressions of type I collagen, BMP-7 protein and TGF-β protein in the NHLF cells of each group were measured with western blotting. The results of the control group served as the basis for calculating the relative expression levels of the other groups.

[2] = system: BMP-7 protein; experiment: BMP-7 protein expression in NHLF, western blotting (3-1); assay type: cell-based, human
Method: Normal Human lung fibroblasts (NHLF) were seeded into 6 cm culture dishes at a density of 2×10^5 cells/dish, comprising a control group and six experimental groups (7 dishes in total). The cells were cultured until the next day, and then the mediums were removed. Each group was respectively treated under the following conditions to conduct follow-up experiments: • (1) Control group: cells were cultured in a FGM-2 medium containing 10% serum for 36 hours; • (2) Group i: cells were cultured in a FGM-2 medium containing 1% serum for 36 hours; • (3) Group ii: cells were firstly cultured in a FGM-2 medium containing 1% serum for 12 hours, and then compound (1) was added into the medium to provide a final concentration of 15 μg/ml; thereafter, the cells were cultured for another 24 hours; • (4) Group iii: cells were firstly cultured in a FGM-2 medium containing 1% serum for 12 hours, and then compound (1) was added into the medium to provide a final concentration of 25 μg/ml; thereafter, the cells were cultured for another 24 hours; • (5) Group iv: cells were cultured in a FGM-2 medium containing 1% serum and TGF-β1 (5 ng/ml) for 36 hours; • (6) Group v: cells were firstly cultured in a FGM-2 medium containing 1% serum and TGF-β1 (5 ng/ml) for 12 hours, and then compound (1) was added into the medium to provide a final concentration of 15 μg/ml; thereafter, the cells were cultured for another 24 hours; and • (7) Group vi: cells were firstly cultured in a FGM-2 medium containing 1% serum and TGF-β1 (5 ng/ml) for 12 hours, and then compound (1) was added into the medium to provide a final concentration of 25 μg/ml; thereafter, the cells were cultured for another 24 hours.
as §1, with “of” for “of type I collagen,”, “BMP-7 protein, TGF-β” for “BMP-7”, “α-SMA” for “TGF-β”, “blotting, wherein the β-actin served as the internal control.” for “blotting.”

[3] = system: C57B/L6 mice injected with Bleomycin sulfate (inducer of pulmonary fibrosis); experiment: Pulmonary fibrosis score (Ashcroft, 0 to 8) in Bleomycin sulfate mice; assay type: in vivo; conditions: compared to oil group
Method: 24 C57B/L6 mice (age: four weeks) were separated into four groups (6 mice in each group). […]
After completing the measurement of the pulmonary function in Example 6, the mice were sacrificed. […] One of the two groups was preserved at −20° C. for the follow-up experiment, and the other group was analyzed by hematoxylin-sosin stain (H&E stain). […]

CCCC=C1OC(=O)c2ccccc21 [compound (1)]
Relative expression level (fold) BMP-7 protein ([1]; Group I: TGF-β1 5 ng/ml 12 h, then compound (1) 15 μg/ml 24 h): 1.57 fold
Relative expression level (fold) BMP-7 protein ([1]; Group II: TGF-β1 5 ng/ml 12 h, then compound (1) 25 μg/ml 24 h): 1.80 fold
Relative expression level (fold) BMP-7 protein ([1]; Group III: TGF-β1 5 ng/ml 12 h, then compound (1) 35 μg/ml 24 h): 1.68 fold
Relative expression level (fold) BMP-7 protein ([2]; Group ii: 1% serum 12 h, then compound (1) 15 μg/ml 24 h, no TGF-β1, 10% serum control = 1, 1% serum group i = 1): 0.91 fold
Relative expression level (fold) BMP-7 protein ([2]; Group iii: 1% serum 12 h, then compound (1) 25 μg/ml 24 h, no TGF-β1, 10% serum control = 1, 1% serum group i = 1): 0.81 fold
Relative expression level (fold) BMP-7 protein ([2]; Group v: 1% serum + TGF-β1 5 ng/ml 12 h, then compound (1) 15 μg/ml 24 h, 10% serum control = 1, TGF-β1-only group iv = 0.82): 0.76 fold
Relative expression level (fold) BMP-7 protein ([2]; Group vi: 1% serum + TGF-β1 5 ng/ml 12 h, then compound (1) 25 μg/ml 24 h, 10% serum control = 1, TGF-β1-only group iv = 0.82): 1.07 fold
pulmonary fibrosis score ([3]; High-dose group, compound (1) 50 mg/kg orally daily 30 days): significantly decreased
pulmonary fibrosis score ([3]; Low-dose group, compound (1) 10 mg/kg orally daily 30 days): significantly decreased
